Consider seven molecules from ChEMBL document CHEMBL3751744, “Antibacterial activities of polythionates enhanced by carbonates” (2015).

The test system of assay [1] is Staphylococcus aureus.
For assay [2], the system named is Staphylococcus aureus. This is another data set of the same source.
Description: Bactericidal activity against Staphylococcus aureus assessed number of surviving colonies after 24 hrs
The test system of assay [3] is Pseudomonas aeruginosa.
Description: (§1) Antibacterial activity against Pseudomonas aeruginosa assessed as growth inhibition after 24 hrs by turbidimetric method
Assay [4] relates to Pseudomonas aeruginosa. The source holds these as a separate data set.
Assay [5] deals with Staphylococcus aureus. Put plainly: Antibacterial activity against Staphylococcus aureus assessed as growth inhibition after 24 hrs by turbidimetric method. It is filed as functional.
Assay [6] concerns Pseudomonas aeruginosa. Description: microbe, parasite or virus in culture. It counts as functional. Conditions: 24 h.
Description: as §1
The test system of assay [7] is Pseudomonas aeruginosa. Put plainly: Bactericidal activity against Pseudomonas aeruginosa assessed number of surviving colonies after 24 hrs. It is filed as functional. Conditions: read-out: MBC99.9.
Assay [8] has as its system Pseudomonas aeruginosa. Description: Antibacterial activity against Pseudomonas aeruginosa using 24 hrs aged compound solutions by cup diffusion method. It counts as functional, organism-based.
Assay [9] relates to Staphylococcus aureus. Description: Antibacterial activity against Staphylococcus aureus assessed as growth inhibition after 24 hrs in presence of urea by turbidimetric method. It counts as functional.
The test system of assay [10] is Pseudomonas aeruginosa. Put plainly: Antibacterial activity against Pseudomonas aeruginosa assessed as growth inhibition after 24 hrs in presence of urea by turbidimetric method. It is filed as functional.
The test system of assay [11] is Pseudomonas aeruginosa. Description: Bactericidal activity against Pseudomonas aeruginosa assessed number of surviving colonies after 24 hrs in presence of urea. It counts as functional. Conditions: read-out: MBC99.9.
Assay [12] has as its system Staphylococcus aureus. Put plainly: Bactericidal activity against Staphylococcus aureus […] assessed number of surviving colonies after 24 hrs in presence of carbonate. It counts as functional, organism-based.
Assay [13] deals with Staphylococcus aureus. Description: Antibacterial activity against Staphylococcus aureus assessed as growth inhibition after 24 hrs in presence of carbonate by turbidimetric method. It is filed as functional.
In assay [14] the test system is Pseudomonas aeruginosa. Description: Antibacterial activity against Pseudomonas aeruginosa assessed as growth inhibition after 24 hrs in presence of carbonate by turbidimetric method. It counts as functional.
Assay [15] deals with Staphylococcus aureus. Put plainly: Bactericidal activity against Staphylococcus aureus […] assessed number of surviving colonies after 24 hrs in presence of urea. It is filed as functional, organism-based.
Assay [16] has as its system Pseudomonas aeruginosa. Description: Bactericidal activity against Pseudomonas aeruginosa assessed number of surviving colonies after 24 hrs in presence of carbonate. It is filed as functional. The following applies: read-out: MBC99.9.
Assay [17] concerns Staphylococcus aureus. Description: Antibacterial activity against Staphylococcus aureus at <125 ug/ml by cup diffusion method. It counts as functional, organism-based.
Assay [18] concerns Pseudomonas aeruginosa. Description: Antibacterial activity against Pseudomonas aeruginosa at 125 ug/ml by cup diffusion method. It is filed as functional, organism-based.
The test system of assay [19] is Pseudomonas aeruginosa. Put plainly: Antibacterial activity against Pseudomonas aeruginosa at 7.8 ug/ml by cup diffusion method. It is filed as functional, organism-based.
The subject of assay [20] is Staphylococcus aureus. Description: Antibacterial activity against Staphylococcus aureus at 250 ug/ml by cup diffusion method. It is filed as functional, organism-based.
Assay [21] has as its system Staphylococcus aureus. Put plainly: Potency index, ratio of MIC for Staphylococcus aureus to MIC for Staphylococcus aureus assessed as growth inhibition in presence of urea. It is filed as functional.
The test system of assay [22] is Pseudomonas aeruginosa. Put plainly: Potency index, ratio of MIC for Pseudomonas aeruginosa to MIC for Pseudomonas aeruginosa assessed as growth inhibition in presence of urea. It is filed as functional.

The source made the active and inactive calls. The rule behind the calls is not given here.

As to `O=S(O)(O)=S`, the MIC entry in the assay on Staphylococcus aureus [1] and in the assay with Pseudomonas aeruginosa [3] was “inactive” each time. Moreover, the MBC99.9 entry in the assay on Staphylococcus aureus [2] and in the assay with Pseudomonas aeruginosa [4] was “inactive” in each case.
Consider `O=S(=O)([O-])SSSS(=O)(=O)[O-].[K+].[K+]`, for which the MIC with Staphylococcus aureus [5] worked out at 62.5 µg/mL; against Pseudomonas aeruginosa [6], 1.95 µg/mL; in the assay with Pseudomonas aeruginosa [10] it was 15.6 µg/mL; with Staphylococcus aureus [13] it was 125 µg/mL; in the assay on Pseudomonas aeruginosa [14] it was 3.91 µg/mL. Also, the MBC with Pseudomonas aeruginosa [7] came out at 500 µg/mL; in the assay with Pseudomonas aeruginosa [11] it was 1000 µg/mL; in the assay on Pseudomonas aeruginosa [16], 1000 µg/mL. In the assay on Pseudomonas aeruginosa [8], the result was Active. The MIC entry in the assay on Staphylococcus aureus [9] was “inactive”. The MBC99.9 entry in the assay with Staphylococcus aureus [12], in the assay on Staphylococcus aureus [15] and in the assay with Staphylococcus aureus [2] was “inactive” each time.
For `O=S(=O)([O-])SSSSS(=O)(=O)[O-].[K+].[K+]`, the result in the assay on Staphylococcus aureus [17] was inactive. For the same molecule, the result in the assay on Pseudomonas aeruginosa [18], in the assay on Pseudomonas aeruginosa [19], in the assay with Staphylococcus aureus [20] and in the assay with Pseudomonas aeruginosa [8] was Active. Moreover, the MIC came to 7.81 µg/mL with Staphylococcus aureus [5]; 0.98 µg/mL in the assay on Pseudomonas aeruginosa [6]; 62.5 µg/mL with Staphylococcus aureus [9]; 1.95 µg/mL in the assay on Pseudomonas aeruginosa [10]; 15.6 µg/mL in the assay with Staphylococcus aureus [13]; 1.95 µg/mL in the assay on Pseudomonas aeruginosa [14]. In addition, the MBC in the assay with Pseudomonas aeruginosa [7] was determined as 1000 µg/mL; with Pseudomonas aeruginosa [11], 500 µg/mL; with Pseudomonas aeruginosa [16], 500 µg/mL. For the same molecule, the Ratio in the assay on Staphylococcus aureus [21] and with Pseudomonas aeruginosa [22] was 4 each time. The MBC99.9 entry in the assay on Staphylococcus aureus [12], in the assay with Staphylococcus aureus [15] and in the assay with Staphylococcus aureus [2] was “inactive” throughout.
Regarding `O=S(=O)(O)SSS(=O)(=O)O`, the MIC result in the assay on Staphylococcus aureus [1] and in the assay on Pseudomonas aeruginosa [3] was “inactive” in each case. The MBC99.9 entry with Staphylococcus aureus [2] and in the assay on Pseudomonas aeruginosa [4] was “inactive” throughout.
As for `O=S(=O)(O)O`, the MIC result with Staphylococcus aureus [1] and in the assay on Pseudomonas aeruginosa [3] was “inactive” in each case. In addition, the MBC99.9 result with Staphylococcus aureus [2] and with Pseudomonas aeruginosa [4] was “inactive” in each case.
As to `O=S(=O)(O)SS(=O)(=O)O`, the MIC result in the assay on Staphylococcus aureus [1] and in the assay with Pseudomonas aeruginosa [3] was “inactive” each time. Further, the MBC99.9 entry in the assay with Staphylococcus aureus [2] and in the assay with Pseudomonas aeruginosa [4] was “inactive” in each case.
As to `NC(N)=O`, the MIC result with Staphylococcus aureus [1] and in the assay with Pseudomonas aeruginosa [3] was “inactive” throughout. For the same molecule, the MBC99.9 result in the assay on Staphylococcus aureus [2] and in the assay on Pseudomonas aeruginosa [4] was “inactive” throughout.
